According to the supplement of paper PMC10307832:

Tests used:
Assay in all cases: relative viability (nuclei count vs DMSO), 5 days (fraction); higher = more cells survive
[1] = compound: CN(C)C[C@@H]1CCn2cc(c3ccccc32)C2=C(C(=O)NC2=O)c2cn(c3ccccc23)CCO1 [Ruboxistaurin] + COc1cc2c(Oc3ccc(NC(=O)C4(C(=O)Nc5ccc(F)cc5)CC4)cc3F)ccnc2cc1OCCCN1CCOCC1 [Foretinib] (partner 0.25 µM)
Procedure, shortened: (§1)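 Relative viability divides the nuclei count in treated wells by that in vehicle wells. Lung cancer cell lines were seeded in 1536-well plates, dosed by pin tool the next day, and fixed and stained after 5 days in one step with final 0.05% Triton X-100, 1% formaldehyde and 1 ug/ml Hoechst. Dosing was a single drug or a fixed anchor-drug dose plus five library-drug doses (not always all listed) in √10 steps, and values are medians of duplicate plates imaged at 4×.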

Ruboxistaurin + OSI-027 = compound: CN(C)C[C@@H]1CCn2cc(c3ccccc32)C2=C(C(=O)NC2=O)c2cn(c3ccccc23)CCO1 [Ruboxistaurin] + COc1cccc2cc(-c3nc([C@H]4CC[C@H](C(=O)O)CC4)n4ncnc(N)c34)[nH]c12 [OSI-027] (partner 0.5 µM)
Procedure, shortened: as §1

[2] = compound: CN(C)C[C@@H]1CCn2cc(c3ccccc32)C2=C(C(=O)NC2=O)c2cn(c3ccccc23)CCO1 [Ruboxistaurin] + C[C@@H](Oc1cc(-c2cnn(C3CCNCC3)c2)cnc1N)c1c(Cl)ccc(F)c1Cl [Crizotinib] (partner 1 µM)
Procedure, shortened: as §1

[3] = compound: CN(C)C[C@@H]1CCn2cc(c3ccccc32)C2=C(C(=O)NC2=O)c2cn(c3ccccc23)CCO1 [Ruboxistaurin] + Cc1nc(NC(=O)N2CCC[C@H]2C(N)=O)sc1-c1ccnc(C(C)(C)C(F)(F)F)c1 [Alpelisib] (partner 2 µM)
Procedure, shortened: as §1

[4] = compound: CN(C)C[C@@H]1CCn2cc(c3ccccc32)C2=C(C(=O)NC2=O)c2cn(c3ccccc23)CCO1 [Ruboxistaurin] + N=C(N)NC(=N)NCCc1ccccc1 [Phenformin] (partner 250 µM)
Procedure, shortened: as §1

| Cell Line | relative viability ([1]; first compound 0.08 µM) | relative viability ([1]; first compound 0.8 µM) | relative viability ([1]; first compound 2.53 µM) | relative viability ([1]; first compound 8 µM) | relative viability (Ruboxistaurin + OSI-027; first compound 0.08 µM) | relative viability (Ruboxistaurin + OSI-027; first compound 0.8 µM) | relative viability (Ruboxistaurin + OSI-027; first compound 2.53 µM) | relative viability (Ruboxistaurin + OSI-027; first compound 8 µM) | relative viability ([2]; first compound 0.08 µM) | relative viability ([2]; first compound 0.8 µM) | relative viability ([2]; first compound 2.53 µM) | relative viability ([2]; first compound 8 µM) | relative viability ([3]; first compound 0.08 µM) | relative viability ([3]; first compound 0.8 µM) | relative viability ([3]; first compound 2.53 µM) | relative viability ([3]; first compound 8 µM) | relative viability ([4]; first compound 0.08 µM) | relative viability ([4]; first compound 0.8 µM) | relative viability ([4]; first compound 2.53 µM) | relative viability ([4]; first compound 8 µM) |
| --- | --- | --- | --- | --- | --- | --- | --- | --- | --- | --- | --- | --- | --- | --- | --- | --- | --- | --- | --- | --- |
| NCI-H3122 | 0.938 | 0.982 | 1.01 | 0.975 | 0.921 | 0.811 | 0.886 | 0.582 | 0.28 | 0.211 | 0.298 | 0.225 | 0.837 | 0.562 | 0.737 | 0.587 | 0.409 | 0.372 | 0.413 | 0.379 |
| PC-3 [JPC-3] | 1.06 | 1.03 | 1.02 | 1.09 | 0.922 | 0.701 | 0.72 | 0.622 | 1.03 | 0.958 | 1 | 1.02 | 1.02 | 0.956 | 1.01 | 0.976 | 0.471 | 0.47 | 0.492 | 0.517 |
| PC-14 | 1.01 | 0.87 | 1 | 0.984 | 1.12 | 0.721 | 0.811 | 0.452 | 0.932 | 0.821 | 0.958 | 0.929 | 1.03 | 0.887 | 0.881 | 1 | 0.675 | 0.568 | 0.536 | 0.556 |
| RERF-LC-KJ | 0.879 | 0.777 | 0.864 | 0.869 | 0.627 | 0.497 | 0.461 | 0.415 | 0.811 | 0.766 | 0.812 | 0.926 | 0.854 | 0.798 | 0.761 | 0.744 | 0.458 | 0.426 | 0.443 | 0.406 |
| SK-LU-1 | 0.93 | 0.809 | 0.772 | 0.683 | 0.386 | 0.322 | 0.307 | 0.264 | 1.03 | 0.734 | 0.869 | 0.583 | 1.07 | 0.81 | 0.921 | 0.782 | 0.61 | 0.495 | 0.628 | 0.526 |
| SK-MES-1 | 1.08 | 0.791 | 0.969 | 0.858 | 0.676 | 0.554 | 0.525 | 0.327 | 1.06 | 1.03 | 0.979 | 0.972 | 1 | 0.782 | 0.837 | 0.801 | 0.678 | 0.607 | 0.658 | 0.639 |
| SW 1573 | 1.15 | 0.866 | 1.03 | 0.762 | 0.729 | 0.459 | 0.541 | 0.494 | 0.855 | 0.74 | 0.942 | 0.688 | 0.752 | 0.688 | 0.72 | 0.706 | 0.408 | 0.141 | 0.445 | 0.282 |
| UMC-11 | 1.05 | 0.951 | 0.904 | 0.646 | 0.437 | 0.403 | 0.37 | 0.301 | 0.537 | 0.554 | 0.64 | 0.465 | 0.966 | 0.896 | 0.95 | 0.743 | 0.321 | 0.33 | 0.315 | 0.354 |
